The values below are quoted from earlier work in patent US20100003224A1, “Combination Therapy” (GENZYME CORPORATION, priority 2006, published 2010).

The test system of one data set is multiple sclerosis. The settings on record: in vivo.
In data set [1] the test system is collagen-induced arthritis. The following applies: mice.
For another data set, the system named is progenitor cells. The following applies: single agent.
Data set [2] relates to pre-B-ALL cells. The settings on record: in vitro.
The next data set has as its system white blood cell counts. The following applies: WO 00/45814.
Data set [3] has as its system pre-B-ALL cells. The settings on record: in vitro. The source holds these as a separate data set.

Regarding “natalizumab: humanized monoclonal antibody against α4 (anti-VLA-4 antibody)”, the “efficacy in the treatment of multiple sclerosis” value with multiple sclerosis is “demonstrated efficacy”.
Regarding `c1cc(CN2CCCNCCNCCCNCC2)ccc1CN1CCCNCCNCCCNCC1` [AMD3100, 1,1′-[1,4-phenylene-bis(methylene)]-bis-1,4,8,11-tetraazacyclotetradecane], the “effects in collagen-induced arthritis models” value in data set [1] is recorded as “protective effects”. Moreover, in the data set on progenitor cells, the “mobilization of progenitor cells” value was “mobilizes progenitor cells”. Besides, the “cytotoxic and antiproliferative effects of vincristine and dexamethasone” value in the data set on pre-B-ALL cells [2] is recorded as “enhanced”. In addition, the “white blood cell counts” value with white blood cell counts is “elevate white blood cell counts”. For the same molecule, the “SDF-1 induced chemotaxis of pre-B-ALL cells into bone marrow stroma layers” value with pre-B-ALL cells [3] is “blocked”.
